Experimental data taken from PubChem BioAssay (NCI).
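In this assay, cells in 96-well plates receive the compound at five concentrations for 48 hours. Endpoints are linearly interpolated between the surrounding concentrations. GI50 is the concentration that inhibits growth by half. TGI marks complete inhibition of growth.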

What was measured:
Test in all cases: DTP human tumour cell line panel, 48 h
UACC-257 melanoma = tested on: UACC-257 melanoma
OVCAR-4 ovarian = tested on: OVCAR-4 ovarian
RPMI-8226 leukemia = tested on: RPMI-8226 leukemia
SW-620 colon = tested on: SW-620 colon
SK-MEL-5 melanoma = tested on: SK-MEL-5 melanoma
NCI/ADR-RES ovarian = tested on: NCI/ADR-RES ovarian
CCRF-CEM leukemia = tested on: CCRF-CEM leukemia
HS 578T breast = tested on: HS 578T breast
MDA-MB-435 = tested on: MDA-MB-435
HT29 colon = tested on: HT29 colon
HCT-15 colon = tested on: HCT-15 colon
MCF7 breast = tested on: MCF7 breast
SK-MEL-2 melanoma = tested on: SK-MEL-2 melanoma
HCC-2998 colon = tested on: HCC-2998 colon
HOP-62 NSCLC = tested on: HOP-62 NSCLC
NCI-H522 lung = tested on: NCI-H522 lung
MALME-3M melanoma = tested on: MALME-3M melanoma
NCI-H460 lung = tested on: NCI-H460 lung
OVCAR-8 ovarian = tested on: OVCAR-8 ovarian
HL-60(TB) leukemia = tested on: HL-60(TB) leukemia
M14 melanoma = tested on: M14 melanoma
NCI-H23 lung = tested on: NCI-H23 lung
SK-MEL-28 melanoma = tested on: SK-MEL-28 melanoma
SR leukemia = tested on: SR leukemia
SF-295 CNS = tested on: SF-295 CNS
HCT-116 colon = tested on: HCT-116 colon
SF-268 CNS = tested on: SF-268 CNS
A549 NSCLC = tested on: A549 NSCLC
A498 renal = tested on: A498 renal
RXF 393 renal = tested on: RXF 393 renal
UO-31 renal = tested on: UO-31 renal
SNB-75 CNS = tested on: SNB-75 CNS
KM12 colon = tested on: KM12 colon
IGROV1 ovarian = tested on: IGROV1 ovarian
SNB-19 CNS = tested on: SNB-19 CNS
OVCAR-3 ovarian = tested on: OVCAR-3 ovarian
SK-OV-3 ovarian = tested on: SK-OV-3 ovarian
U251 CNS = tested on: U251 CNS
HOP-92 NSCLC = tested on: HOP-92 NSCLC
SF-539 CNS = tested on: SF-539 CNS
T-47D breast = tested on: T-47D breast
MDA-MB-231 breast = tested on: MDA-MB-231 breast
BT-549 breast = tested on: BT-549 breast
786-0 renal = tested on: 786-0 renal
OVCAR-5 ovarian = tested on: OVCAR-5 ovarian
DU-145 prostate = tested on: DU-145 prostate
TK-10 renal = tested on: TK-10 renal
LOX IMVI melanoma = tested on: LOX IMVI melanoma
MOLT-4 leukemia = tested on: MOLT-4 leukemia
COLO 205 colon = tested on: COLO 205 colon
PC-3 prostate = tested on: PC-3 prostate
NCI-H226 lung = tested on: NCI-H226 lung
ACHN renal = tested on: ACHN renal
EKVX NSCLC = tested on: EKVX NSCLC
CAKI-1 renal = tested on: CAKI-1 renal
K-562 leukemia = tested on: K-562 leukemia

C=C1C(=O)O[C@H]2[C@H]1CC/C(COC(=O)NCCc1ccc(Br)cc1)=C\CC[C@@]1(C)O[C@@H]21
GI50 (UACC-257 melanoma): 1.63 µM
TGI (UACC-257 melanoma): 3.09 µM
GI50 (OVCAR-4 ovarian): 1.56 µM
TGI (OVCAR-4 ovarian): 3.29 µM
GI50 (RPMI-8226 leukemia): 0.624 µM
TGI (RPMI-8226 leukemia): 2.89 µM
GI50 (SW-620 colon): 0.711 µM
TGI (SW-620 colon): 2.4 µM
GI50 (SK-MEL-5 melanoma): 1.71 µM
TGI (SK-MEL-5 melanoma): 3.22 µM
GI50 (NCI/ADR-RES ovarian): 2.26 µM
TGI (NCI/ADR-RES ovarian): 6.74 µM
GI50 (CCRF-CEM leukemia): 0.279 µM
TGI (CCRF-CEM leukemia): 0.847 µM
GI50 (HS 578T breast): 2.41 µM
TGI (HS 578T breast): 7.15 µM
GI50 (MDA-MB-435): 1.28 µM
TGI (MDA-MB-435): 2.81 µM
GI50 (HT29 colon): 1.32 µM
TGI (HT29 colon): 3.38 µM
GI50 (HCT-15 colon): 1.01 µM
TGI (HCT-15 colon): 2.33 µM
GI50 (MCF7 breast): 0.417 µM
TGI (MCF7 breast): 1.82 µM
GI50 (SK-MEL-2 melanoma): 1.58 µM
TGI (SK-MEL-2 melanoma): 3.17 µM
GI50 (HCC-2998 colon): 1.71 µM
TGI (HCC-2998 colon): 3.37 µM
GI50 (HOP-62 NSCLC): 1.99 µM
TGI (HOP-62 NSCLC): 4.4 µM
GI50 (NCI-H522 lung): 1.16 µM
TGI (NCI-H522 lung): 2.73 µM
GI50 (MALME-3M melanoma): 2.09 µM
TGI (MALME-3M melanoma): 3.77 µM
GI50 (NCI-H460 lung): 2.06 µM
TGI (NCI-H460 lung): 4.64 µM
GI50 (OVCAR-8 ovarian): 1.49 µM
TGI (OVCAR-8 ovarian): 3.69 µM
GI50 (HL-60(TB) leukemia): 1.06 µM
TGI (HL-60(TB) leukemia): 3.97 µM
GI50 (M14 melanoma): 1.26 µM
TGI (M14 melanoma): 2.73 µM
GI50 (NCI-H23 lung): 1.72 µM
TGI (NCI-H23 lung): 3.84 µM
GI50 (SK-MEL-28 melanoma): 1.47 µM
TGI (SK-MEL-28 melanoma): 3.12 µM
GI50 (SR leukemia): 0.43 µM
TGI (SR leukemia): 2.91 µM
GI50 (SF-295 CNS): 3.81 µM
TGI (SF-295 CNS): 15.5 µM
GI50 (HCT-116 colon): 0.477 µM
TGI (HCT-116 colon): 1.81 µM
GI50 (SF-268 CNS): 1.56 µM
TGI (SF-268 CNS): 3.19 µM
GI50 (A549 NSCLC): 2.59 µM
TGI (A549 NSCLC): 6.17 µM
GI50 (A498 renal): 2.07 µM
TGI (A498 renal): 4.21 µM
GI50 (RXF 393 renal): 1.2 µM
TGI (RXF 393 renal): 2.68 µM
GI50 (UO-31 renal): 1.55 µM
TGI (UO-31 renal): 2.95 µM
GI50 (SNB-75 CNS): 1.2 µM
TGI (SNB-75 CNS): 2.45 µM
GI50 (KM12 colon): 1.95 µM
TGI (KM12 colon): 4.46 µM
GI50 (IGROV1 ovarian): 1.08 µM
TGI (IGROV1 ovarian): 2.59 µM
GI50 (SNB-19 CNS): 1.39 µM
TGI (SNB-19 CNS): 2.97 µM
GI50 (OVCAR-3 ovarian): 0.984 µM
TGI (OVCAR-3 ovarian): 2.27 µM
GI50 (SK-OV-3 ovarian): 10.8 µM
TGI (SK-OV-3 ovarian): 22.8 µM
GI50 (U251 CNS): 1.4 µM
TGI (U251 CNS): 2.75 µM
GI50 (HOP-92 NSCLC): 1.28 µM
TGI (HOP-92 NSCLC): 2.77 µM
GI50 (SF-539 CNS): 1.46 µM
TGI (SF-539 CNS): 2.88 µM
GI50 (T-47D breast): 1.38 µM
TGI (T-47D breast): 3.72 µM
GI50 (MDA-MB-231 breast): 1.42 µM
TGI (MDA-MB-231 breast): 3.08 µM
GI50 (BT-549 breast): 1.1 µM
TGI (BT-549 breast): 2.6 µM
GI50 (786-0 renal): 1.04 µM
TGI (786-0 renal): 2.4 µM
GI50 (OVCAR-5 ovarian): 1.96 µM
TGI (OVCAR-5 ovarian): 4.47 µM
GI50 (DU-145 prostate): 0.771 µM
TGI (DU-145 prostate): 2.04 µM
GI50 (TK-10 renal): 1.73 µM
TGI (TK-10 renal): 3.12 µM
GI50 (LOX IMVI melanoma): 1.18 µM
TGI (LOX IMVI melanoma): 2.58 µM
GI50 (MOLT-4 leukemia): 1.69 µM
TGI (MOLT-4 leukemia): 4.8 µM
GI50 (COLO 205 colon): 1.82 µM
TGI (COLO 205 colon): 3.57 µM
GI50 (PC-3 prostate): 1.73 µM
TGI (PC-3 prostate): 3.32 µM
GI50 (NCI-H226 lung): 1.72 µM
TGI (NCI-H226 lung): 3.37 µM
GI50 (ACHN renal): 1.32 µM
TGI (ACHN renal): 2.78 µM
GI50 (EKVX NSCLC): 1.54 µM
TGI (EKVX NSCLC): 3.29 µM
GI50 (CAKI-1 renal): 1.42 µM
TGI (CAKI-1 renal): 2.77 µM
GI50 (K-562 leukemia): 0.535 µM
TGI (K-562 leukemia): 5.61 µM
